As usually defined, the EC50 is the concentration that produces a half-maximal response.

This experiment has as its target RIPK1 (Homo sapiens (Human), UniProt Q13546). Briefly: RIPK1-ADP-Glo Enzymatic Assay. It counts as biochemical. Particulars: recombinant GST-RIPK1 kinase domain (residues 1-327), 25 nM, ten-point titration, 30 minutes pre-incubation. The essentials:
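GST-RIPK1 kinase domain (residues 1-327, Sf21-expressed; 25 nM final) was pre-incubated 30 min at ambient temperature with compound (10-point 1:3 series from 100000 nM, 1% DMSO) in HEPES pH 7.3 buffer with 20 mM MgCl2. The reaction was started with 900 μM ATP (addition solution) and 3 μM dephosphorylated MBP and ran 150 min. Read-out was ADP-Glo luminescence, with EC50 from a four-parameter fit.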
In general terms: ADP-Glo turns the ADP formed in a reaction into a luminescent signal.

Sequence of RIPK1 (Q13546 1-327): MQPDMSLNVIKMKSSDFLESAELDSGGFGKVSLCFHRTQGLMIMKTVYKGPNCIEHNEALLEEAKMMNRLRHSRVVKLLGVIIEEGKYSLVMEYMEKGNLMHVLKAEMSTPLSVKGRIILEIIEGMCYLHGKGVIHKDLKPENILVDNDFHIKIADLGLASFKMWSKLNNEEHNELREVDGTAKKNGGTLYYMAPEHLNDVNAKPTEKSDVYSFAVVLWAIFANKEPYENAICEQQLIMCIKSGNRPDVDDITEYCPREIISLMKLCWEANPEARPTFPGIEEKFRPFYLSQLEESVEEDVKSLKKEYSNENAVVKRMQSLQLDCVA

For the compound `CC(C)Oc1cc(N2CCC3(CC2)CN2CC[C@@H](c4cc(F)cc(F)c4)N2C3=O)ncc1C#N` [Example 1.59, (S)-6-(7′-(3,5-difluorophenyl)-1′-oxodihydro-1′H,3′H,5′H-spiro[piperidine-4,2′-pyrazolo[1,2-a]pyrazol]-1-yl)-4-isopropoxynicotinonitrile], the EC50 was 18 nM.
For `Cc1cc(N2CCC3(CC2)CN2CC[C@@H](c4cc(F)cc(F)c4)N2C3=O)ccn1` [Example 2.3, (S)-7′-(3,5-difluorophenyl)-1-(2-methylpyridin-4-yl)dihydro-l′H,3′H,5′H-spiro[piperidine-4,2′-pyrazolo[1,2-a]pyrazol]-1′-one] the value was 501 nM; for `O=C1N2[C@H](c3cc(F)cc(F)c3)CCN2CC12CCN(c1ccnc(C(F)F)n1)CC2` [Example 1.8, (7′S)-1-[2-(difluoromethyl)pyrimidin-4-yl]-7′-(3,5-difluorophenyl)dihydro-1′H,3′H,5′H-spiro[piperidine-4,2′-pyrazolo[1,2-a]pyrazol]-1′-one], 16 nM.
On to `Cc1c(F)cccc1C(=O)N1CCC2(CC1)CN1CC[C@@H](c3cc(F)cc(F)c3)N1C2=O` [Example 4.8, (S)-7′-(3,5-difluorophenyl)-1-(3-fluoro-2-methylbenzoyl)dihydro-1′H,3′H,5′H-spiro[piperidine-4,2′-pyrazolo[1,2-a]pyrazol]-l′-one], for which the EC50 is 158 nM.
For `O=C1N2[C@H](c3cc(F)cc(F)c3)CCN2CC12CCN(c1ccc(Cl)nn1)CC2` [Example 1.34, (S)-1-(6-chloropyridazin-3-yl)-7′-(3,5-difluorophenyl)dihydro-1′H,3′H,5′H-spiro[piperidine-4,2′-pyrazolo[1,2-a]pyrazol]-1′-one] the value was 457 nM.
For `CSc1cnc(N2CCC3(CC2)CN2CC[C@@H](c4cc(F)cc(F)c4)N2C3=O)cn1` [Example 2.20, (S)-7′-(3,5-difluorophenyl)-1-(5-(methylthio)pyrazin-2-yl)dihydro-l′H,3′H,5′H-spiro[piperidine-4,2′-pyrazolo[1,2-a]pyrazol]-1′-one] the value was 30 nM; for `N#Cc1ccc(N2CCC3(CC2)CN2CC[C@@H](c4cc(F)cc(F)c4)N2C3=O)nn1` [Example 1.37, (S)-6-(7′-(3,5-difluorophenyl)-1′-oxodihydro-1′H,3′H,5′H-spiro[piperidine-4,2′-pyrazolo[1,2-a]pyrazol]-1-yl)pyridazine-3-carbonitrile], 473 nM; for `O=C1N2[C@H](c3cc(F)cc(F)c3)CCN2CC12CCN(c1cc(C(F)(F)F)ncn1)CC2` [Example 1.94, (S)-7′-(3,5-difluorophenyl)-1-(6-(trifluoromethyl)pyrimidin-4-yl)dihydro-1′H,3′H,5′H-spiro[piperidine-4,2′-pyrazolo[1,2-a]pyrazol]-1′-one], 85 nM.
Regarding `N#Cc1ccc(N2CCC3(CC2)CN2CC[C@@H](c4cc(F)cc(F)c4)N2C3=O)nc1` [Example 1.50, (S)-6-(7′-(3,5-difluorophenyl)-1′-oxodihydro-1′H,3′H,5′H-spiro[piperidine-4,2′-pyrazolo[1,2-a]pyrazol]-1-yl)nicotinonitrile], the EC50 was found to be 64 nM.
Take `O=C1N2[C@H](c3cc(F)cc(F)c3)CCN2CC12CCN(c1ccc(Cl)c3ccnn13)CC2` [Example 8.1, (S)-1-(4-chloropyrazolo[1,5-α]pyridin-7-yl)-7′-(3,5-difluorophenyl) dihydro-1′H,3′H,5′H-spiro [piperidine-4,2′-pyrazolo[1,2-α]pyrazol]-1′-one]: the EC50 is 7 nM.
For the compound `CN(C)c1cc(Cl)nc(N2CCC3(CC2)CN2CC[C@@H](c4cc(F)cc(F)c4)N2C3=O)n1` [Example 1.61, (S)-1-(4-chloro-6-(dimethylamino)pyrimidin-2-yl)-7′-(3,5-difluorophenyl)dihydro-1′H,3′H,5′H-spiro[piperidine-4,2′-pyrazolo[1,2-a]pyrazol]-1′-one], the EC50 worked out at 904 nM.
For `O=C1N2[C@H](c3cc(F)cc(F)c3)CCN2CC12CCN(c1ncnc3scnc13)CC2` [Example 3.3, (S)-7′-(3,5-difluorophenyl)-1-(thiazolo[5,4-d]pyrimidin-7-yl)dihydro-1′H,3′H,5′H-spiro[piperidine-4,2′-pyrazolo[1,2-a]pyrazol]-1′-one] the value was 14 nM; for `O=C(c1cccc(F)c1)N1CCC2(CC1)CN1CC[C@@H](c3cc(F)cc(F)c3)N1C2=O` [Example 4.25, (S)-7′-(3,5-difluorophenyl)-1-(3-fluorobenzoyl) dihydro-1′H,3′H,5′H-spiro[piperidine-4,2′-pyrazolo[1,2-a]pyrazol]-l′-one], 35 nM; for `NC(=O)c1ccnc(N2CCC3(CC2)CN2CC[C@@H](c4cc(F)cc(F)c4)N2C3=O)n1` [Example 1.24, (S)-2-(7′-(3,5-difluorophenyl)-1′-oxodihydro-1′H,3′H,5′H-spiro[piperidine-4,2′-pyrazolo[1,2-a]pyrazol]-1-yl)pyrimidine-4-carboxamide], 136 nM.
For `O=C1N2[C@H](c3cc(F)cc(F)c3)CCN2CC12CCN(c1nccn3ncnc13)CC2` [Example 1.79, (S)-1-([1,2,4]triazolo[1,5-a]pyrazin-8-yl)-7′-(3,5-difluorophenyl)dihydro-1′H,3′H,5′H-spiro[piperidine-4,2′-pyrazolo[1,2-a]pyrazol]-1′-one] the value was 30 nM; for `O=C1N2[C@H](c3cc(F)cc(F)c3)CCN2CC12CCN(c1cc(-c3cnn(C(F)F)c3)ncn1)CC2` [Example 1.87, (S)-1-(6-(1-(difluoromethyl)-1H-pyrazol-4-yl)pyrimidin-4-yl)-7′-(3,5-difluorophenyl)dihydro-1′H,3′H,5′H-spiro[piperidine-4,2′-pyrazolo[1,2-a]pyrazol]-1′-one], 6 nM.
As to `CC(F)(F)c1ccnc(N2CCC3(CC2)CN2CC[C@@H](c4cc(F)cc(F)c4)N2C3=O)n1` [Example 1.77, (S)-1-(4-(1,1-difluoroethyl)pyrimidin-2-yl)-7′-(3,5-difluorophenyl)dihydro-1′H,3′H,5′H-spiro [piperidine-4,2′-pyrazolo[1,2-a]pyrazol]-1′-one], the EC50 is 200 nM.
For `O=C(c1cccc(F)c1F)N1CCC2(CC1)CN1CC[C@@H](c3cc(F)cc(F)c3)N1C2=O` [Example 4.29, (S)-1-(2,3-difluorobenzoyl)-7′-(3,5-difluorophenyl) dihydro-1′H,3′H,5′H-spiro[piperidine-4,2′-pyrazolo[1,2-a]pyrazol]-l′-one] the value was 23 nM; for `COc1nc(N2CCC3(CC2)CN2CC[C@@H](c4cc(F)cc(F)c4)N2C3=O)ncc1C` [Example 1.23, (S)-7′-(3,5-difluorophenyl)-1-(4-methoxy-5-methylpyrimidin-2-yl)dihydro-1′H,3′H,5′H-spiro[piperidine-4,2′-pyrazolo[1,2-a]pyrazol]-1′-one], 68 nM.
For `Cc1ccc(C(=O)N2CCC3(CC2)CN2CC[C@@H](c4cc(F)cc(F)c4)N2C3=O)cc1F` [Example 4.22, (S)-7′-(3,5-difluorophenyl)-1-(3-fluoro-4-methylbenzoyl) dihydro-1′H,3′H,5′H-spiro[piperidine-4,2′-pyrazolo[1,2-a]pyrazol]-l′-one] the value was 46 nM.
As for `O=C1N2[C@H](c3cc(F)cc(F)c3)CCN2CC12CCN(c1ncc(F)c(C(F)F)n1)CC2` [Example 1.57, (S)-1-(4-(difluoromethyl)-5-fluoropyrimidin-2-yl)-7′-(3,5-difluorophenyl)dihydro-1′H,3′H,5′H-spiro[piperidine-4,2′-pyrazolo[1,2-a]pyrazol]-1′-one], the concentration for a half-maximal effect (EC50) was found to be 26 nM.
For `Cc1cc(-c2cncs2)nc(N2CCC3(CC2)CN2CC[C@@H](c4cc(F)cc(F)c4)N2C3=O)c1` [Example 2.23, (S)-7′-(3,5-difluorophenyl)-1-(4-methyl-6-(thiazol-5-yl)pyridin-2-yl)dihydro-1′H,3′H,5′H-spiro[piperidine-4,2′-pyrazolo[1,2-a]pyrazol]-1′-one] the value was 48 nM.
For `Cc1ccn(-c2ccnc(N3CCC4(CC3)CN3CC[C@@H](c5cc(F)cc(F)c5)N3C4=O)c2)n1` [Example 2.5, (S)-7′-(3,5-difluorophenyl)-1-(4-(3-methyl-1H-pyrazol-1-yl)pyridin-2-yl)dihydro-1′H,3′H,5′H-spiro[piperidine-4,2′-pyrazolo[1,2-a]pyrazol]-1′-one] the value was 118 nM.
For `O=C1N2[C@H](c3cc(F)cc(F)c3)CCN2CC12CCN(c1noc3ccccc13)CC2` [Example 2.6, (S)-1-(benzo[d]isoxazol-3-yl)-7′-(3,5-difluorophenyl)dihydro-1′H,3′H,5′H-spiro[piperidine-4,2′-pyrazolo[1,2-a]pyrazol]-1′-one] the value was 145 nM.
Take `Cc1ccc(F)cc1C(=O)N1CCC2(CC1)CN1CC[C@@H](c3cc(F)cc(F)c3)N1C2=O` [Example 4.13, (S)-7′-(3,5-difluorophenyl)-1-(5-fluoro-2-methylbenzoyl) dihydro-1′H,3′H,5′H-spiro[piperidine-4,2′-pyrazolo[1,2-a]pyrazol]-l′-one]: the EC50 worked out at 335 nM.
For `O=C1N2[C@H](c3cc(F)cc(F)c3)CCN2CC12CCN(c1nc(Cl)nc3[nH]ncc13)CC2` [Example 1.53, (S)-1-(6-chloro-1H-pyrazolo[3,4-d]pyrimidin-4-yl)-7′-(3,5-difluorophenyl)dihydro-1′H,3′H,5′H-spiro[piperidine-4,2′-pyrazolo[1,2-a]pyrazol]-1′-one] the value was 857 nM; for `Cc1c(Cl)ncnc1N1CCC2(CC1)CN1CC[C@@H](c3cc(F)cc(F)c3)N1C2=O` [Example 1.38, (S)-1-(6-chloro-5-methylpyrimidin-4-yl)-7′-(3,5-difluorophenyl)dihydro-1′H,3′H,5′H-spiro[piperidine-4,2′-pyrazolo[1,2-a]pyrazol]-1′-one], 20 nM.

The values are drawn from patent US20240425524A1, “SPIROTRICYCLE RIPK1 INHIBITORS AND METHODS OF USES THEREOF” (Merck Sharp & Dohme LLC, priority 2021, published 2024).
